Data taken from ChEMBL document CHEMBL1201862, “PubChem BioAssay data set” (2004).
Activity calls are given as the source filed them.

Assays:
[1] = viability of PTEN-deleted HCT116 cells – cell-based, HCT116 PTEN knockout, dose response (AID 1047); assay type: functional;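 further: HCT116 colon tumor cells with PTEN knocked out; cells exposed to compound for 60 hours before readout; potency for loss of cell viability measured by luminescence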
[2] = tested on: HeLa; test: viability loss in HeLa cells – cell-based, 24 h, cherry-picked samples, cytotoxicity control, dose response (AID 504726); assay type: functional; conditions: Homo sapiens;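 further: potency for cytotoxicity as loss of luminescence signal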
[3] = molecular target: T1, Heat shock factor protein 1 (Mus musculus, UniProt P38532); test: enhancement of HSF1-driven luciferase signal – cell-based, NIH3T3, luminescence, dose retest, confirmation (AID 435004); assay type: functional;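 further: stress induced by proteasome inhibitor MG132 added 30 min after compound; luciferase reporter driven by HSF1 response element in NIH3T3 cells; actives raise luminescence as potentiators of the MG132 stress response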
T1 sequence (P38532 whole entry): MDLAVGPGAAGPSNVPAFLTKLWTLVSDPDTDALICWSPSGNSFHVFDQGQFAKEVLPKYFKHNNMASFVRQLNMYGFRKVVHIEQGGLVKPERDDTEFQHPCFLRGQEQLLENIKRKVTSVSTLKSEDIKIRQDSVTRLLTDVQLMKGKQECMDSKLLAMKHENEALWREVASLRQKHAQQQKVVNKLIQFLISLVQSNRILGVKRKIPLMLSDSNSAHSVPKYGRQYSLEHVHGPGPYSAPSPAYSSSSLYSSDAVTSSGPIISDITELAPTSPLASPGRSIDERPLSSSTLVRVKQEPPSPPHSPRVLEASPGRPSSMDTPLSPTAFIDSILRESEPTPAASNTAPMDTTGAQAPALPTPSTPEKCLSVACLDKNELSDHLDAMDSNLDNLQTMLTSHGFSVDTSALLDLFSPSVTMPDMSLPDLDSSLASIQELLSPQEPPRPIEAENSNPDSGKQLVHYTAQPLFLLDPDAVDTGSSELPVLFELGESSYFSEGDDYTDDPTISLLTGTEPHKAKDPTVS

[4] = viability of HCT116 lacking mutant beta-catenin – cell-based, human colon tumor, dose response (AID 1045); assay type: functional;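 further: HCT116 colon tumor cells with beta catenin knocked out; cells exposed to compound for 60 hours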
[5] = molecular target: ORF 73 (Human herpesvirus 8, UniProt O40947); test: KSHV LANA DNA-binding disruption – biochemical, fluorescence polarization, cherry-picked samples, dose response (AID 504725); parameters: species or system Human gammaherpesvirus 8;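 further: fluorescence polarization of a labeled DNA duplex reporting LANA DNA binding; potency is for inhibitors that block LANA binding to the DNA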
[6] = molecular target: Beta-galactosidase (Escherichia coli, UniProt Q8VNN2); test: detection-enzyme interference by beta-gal modulators – biochemical, E. coli enzyme, set 3, artefact control for CCR6 antagonist project, dose response (AID 504712); assay type: functional
[7] = molecular target: T2, Streptokinase A (Streptococcus pyogenes serotype M1, UniProt P10520); test: viability-normalized secreted streptokinase activity reduction – plasminogen activation absorbance, OD405, dose response (AID 1914); assay type: functional, Streptococcus pyogenes M1 GAS;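 further: secreted streptokinase activity via plasminogen activation per viability signal from cell pellet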
T2 sequence (P10520 whole entry): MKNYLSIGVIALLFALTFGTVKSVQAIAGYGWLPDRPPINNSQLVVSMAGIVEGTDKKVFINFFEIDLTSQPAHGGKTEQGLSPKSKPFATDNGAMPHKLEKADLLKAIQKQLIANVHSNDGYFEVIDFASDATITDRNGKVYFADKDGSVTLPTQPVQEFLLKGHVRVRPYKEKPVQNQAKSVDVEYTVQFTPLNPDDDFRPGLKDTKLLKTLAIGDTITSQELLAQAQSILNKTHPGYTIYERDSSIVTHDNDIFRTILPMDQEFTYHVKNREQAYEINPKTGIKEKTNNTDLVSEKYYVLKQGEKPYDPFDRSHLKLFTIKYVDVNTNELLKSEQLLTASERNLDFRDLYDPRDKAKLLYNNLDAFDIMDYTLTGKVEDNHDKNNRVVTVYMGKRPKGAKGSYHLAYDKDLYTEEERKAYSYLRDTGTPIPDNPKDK

[8] = NIH-3T3 fibroblast cytotoxicity, dose response, cytotoxicity control, cell-based, fluorescence, Alamar Blue, secondary assay (AID 2327); assay type: functional;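 further: NIH-3T3 mouse fibroblasts cultured with fluconazole at 8 µg/mL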
[9] = fluconazole-exposed Candida albicans growth modulators – fluorescence, retest, confirmation (AID 2467); assay type: functional, cell-based
[10] = tested on: Streptococcus sp. 'group A'; test: Streptococcus pyogenes SK(-)GAS viability under kanamycin – luminescence, BacTiterGlo, confirmation, counter-screen for streptokinase expression inhibitor project, dose response (AID 1900); assay type: functional, organism-based
[11] = tested on: Streptococcus; test: GAS UMAA2166 growth inhibition – luminescence, BacTiterGlo, counter-screen for streptokinase expression inhibitor project, dose response (AID 1915); assay type: functional, organism-based;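 further: potency for reduction of bacterial viability or growth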
[12] = molecular target: Induced myeloid leukemia cell differentiation protein Mcl-1 (Homo sapiens, UniProt Q07820); assay type: functional
[13] = molecular target: T3, Glutathione-S-transferase (Schistosoma japonicum, UniProt Q26513); test: GST-antibody interaction or FRET quenching – biochemical, TR-FRET, artefact control for Vif-APOBEC3G degradation inhibitor project, dose response (AID 1117362); assay type: functional
T3 sequence (Q26513 whole entry): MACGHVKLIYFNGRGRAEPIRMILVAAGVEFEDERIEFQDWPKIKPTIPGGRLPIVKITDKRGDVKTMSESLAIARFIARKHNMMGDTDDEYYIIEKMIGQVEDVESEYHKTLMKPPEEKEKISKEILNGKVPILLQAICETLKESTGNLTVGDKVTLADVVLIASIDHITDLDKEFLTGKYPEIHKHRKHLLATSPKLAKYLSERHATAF

[14] = molecular target: Eukaryotic translation initiation factor 4E (Mus musculus, UniProt P63073); test: blockers of eIF4G binding by eIF4E – biochemical, TR-FRET, dose response (AID 855); assay type: functional;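 further: potency for disrupting eIF4E binding to eIF4GI seen as loss of FRET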
[15] = molecular target: T4, Tyrosine-protein phosphatase non-receptor type 7 (Homo sapiens, UniProt P35236); test: redox-active compounds inhibiting HePTP phosphatase – biochemical, fluorescence, mechanism study (AID 2068); assay type: functional
T4 sequence (P35236 whole entry): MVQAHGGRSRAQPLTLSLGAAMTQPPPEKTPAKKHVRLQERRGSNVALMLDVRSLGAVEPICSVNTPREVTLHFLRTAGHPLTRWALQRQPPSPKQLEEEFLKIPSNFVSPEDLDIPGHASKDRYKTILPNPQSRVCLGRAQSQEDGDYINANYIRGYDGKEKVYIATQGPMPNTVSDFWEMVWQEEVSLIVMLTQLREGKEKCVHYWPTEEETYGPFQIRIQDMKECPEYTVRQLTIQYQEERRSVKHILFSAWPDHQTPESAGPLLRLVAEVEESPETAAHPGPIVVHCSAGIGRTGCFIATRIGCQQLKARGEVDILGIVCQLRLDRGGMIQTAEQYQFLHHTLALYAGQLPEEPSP

[16] = molecular target: T5, Coagulation factor XII (Homo sapiens, UniProt P00748); test: activated coagulation factor XII inhibitor potency, concentration-effect curve, cell-free (AID 716); assay type: functional
T5 sequence (P00748 whole entry): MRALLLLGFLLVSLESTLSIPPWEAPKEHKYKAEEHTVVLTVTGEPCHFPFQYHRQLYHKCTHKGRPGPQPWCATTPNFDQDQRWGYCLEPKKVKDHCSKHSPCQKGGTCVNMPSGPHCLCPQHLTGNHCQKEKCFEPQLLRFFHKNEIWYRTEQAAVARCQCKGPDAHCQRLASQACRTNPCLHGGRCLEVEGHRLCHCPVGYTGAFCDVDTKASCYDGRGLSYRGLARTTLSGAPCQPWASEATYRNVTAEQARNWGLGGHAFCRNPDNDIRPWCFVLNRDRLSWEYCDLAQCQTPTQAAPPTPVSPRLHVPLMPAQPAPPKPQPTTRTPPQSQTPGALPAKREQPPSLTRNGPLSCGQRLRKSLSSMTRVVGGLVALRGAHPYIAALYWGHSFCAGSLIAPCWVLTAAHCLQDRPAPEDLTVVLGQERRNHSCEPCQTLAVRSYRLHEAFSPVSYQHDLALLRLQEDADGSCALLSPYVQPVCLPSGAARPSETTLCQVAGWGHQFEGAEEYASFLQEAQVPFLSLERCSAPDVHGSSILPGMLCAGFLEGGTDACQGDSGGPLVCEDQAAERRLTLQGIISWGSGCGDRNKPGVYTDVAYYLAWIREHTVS

Chain of Eukaryotic translation initiation factor 4E (P63073 whole entry): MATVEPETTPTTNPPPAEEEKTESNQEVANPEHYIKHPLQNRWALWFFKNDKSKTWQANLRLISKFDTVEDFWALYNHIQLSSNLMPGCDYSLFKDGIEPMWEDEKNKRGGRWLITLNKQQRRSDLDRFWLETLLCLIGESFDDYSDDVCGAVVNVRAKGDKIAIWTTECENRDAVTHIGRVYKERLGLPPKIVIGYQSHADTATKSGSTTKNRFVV
Chain of ORF 73 (O40947 whole entry): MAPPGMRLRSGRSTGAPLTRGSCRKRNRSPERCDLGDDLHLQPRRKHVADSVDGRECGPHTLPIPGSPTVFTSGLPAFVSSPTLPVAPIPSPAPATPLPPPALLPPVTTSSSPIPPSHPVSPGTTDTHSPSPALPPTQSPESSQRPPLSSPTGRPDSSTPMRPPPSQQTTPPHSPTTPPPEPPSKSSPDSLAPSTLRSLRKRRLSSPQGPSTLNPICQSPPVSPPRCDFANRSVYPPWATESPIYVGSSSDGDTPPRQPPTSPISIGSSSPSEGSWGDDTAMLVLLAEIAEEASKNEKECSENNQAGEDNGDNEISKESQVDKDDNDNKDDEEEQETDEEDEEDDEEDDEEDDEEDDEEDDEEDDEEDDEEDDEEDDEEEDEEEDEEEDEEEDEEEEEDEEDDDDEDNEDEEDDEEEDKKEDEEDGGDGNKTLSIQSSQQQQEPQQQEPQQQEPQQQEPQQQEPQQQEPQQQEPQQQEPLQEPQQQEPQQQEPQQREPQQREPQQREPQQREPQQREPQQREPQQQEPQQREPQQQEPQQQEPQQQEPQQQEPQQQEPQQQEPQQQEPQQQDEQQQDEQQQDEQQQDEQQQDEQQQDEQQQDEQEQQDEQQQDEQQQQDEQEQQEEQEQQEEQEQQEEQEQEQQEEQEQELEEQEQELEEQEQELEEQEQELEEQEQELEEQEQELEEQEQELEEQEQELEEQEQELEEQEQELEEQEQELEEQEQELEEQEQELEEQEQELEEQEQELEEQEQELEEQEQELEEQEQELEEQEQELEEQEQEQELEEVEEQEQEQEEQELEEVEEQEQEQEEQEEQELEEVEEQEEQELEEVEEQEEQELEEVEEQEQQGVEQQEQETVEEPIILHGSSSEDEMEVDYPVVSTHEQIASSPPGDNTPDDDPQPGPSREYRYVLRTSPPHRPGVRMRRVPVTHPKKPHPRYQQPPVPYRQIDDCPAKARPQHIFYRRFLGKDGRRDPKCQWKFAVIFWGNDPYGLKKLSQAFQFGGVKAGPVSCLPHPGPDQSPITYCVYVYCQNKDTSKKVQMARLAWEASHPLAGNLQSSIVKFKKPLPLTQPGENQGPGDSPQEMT
Chain of Beta-galactosidase (Q8VNN2 whole entry): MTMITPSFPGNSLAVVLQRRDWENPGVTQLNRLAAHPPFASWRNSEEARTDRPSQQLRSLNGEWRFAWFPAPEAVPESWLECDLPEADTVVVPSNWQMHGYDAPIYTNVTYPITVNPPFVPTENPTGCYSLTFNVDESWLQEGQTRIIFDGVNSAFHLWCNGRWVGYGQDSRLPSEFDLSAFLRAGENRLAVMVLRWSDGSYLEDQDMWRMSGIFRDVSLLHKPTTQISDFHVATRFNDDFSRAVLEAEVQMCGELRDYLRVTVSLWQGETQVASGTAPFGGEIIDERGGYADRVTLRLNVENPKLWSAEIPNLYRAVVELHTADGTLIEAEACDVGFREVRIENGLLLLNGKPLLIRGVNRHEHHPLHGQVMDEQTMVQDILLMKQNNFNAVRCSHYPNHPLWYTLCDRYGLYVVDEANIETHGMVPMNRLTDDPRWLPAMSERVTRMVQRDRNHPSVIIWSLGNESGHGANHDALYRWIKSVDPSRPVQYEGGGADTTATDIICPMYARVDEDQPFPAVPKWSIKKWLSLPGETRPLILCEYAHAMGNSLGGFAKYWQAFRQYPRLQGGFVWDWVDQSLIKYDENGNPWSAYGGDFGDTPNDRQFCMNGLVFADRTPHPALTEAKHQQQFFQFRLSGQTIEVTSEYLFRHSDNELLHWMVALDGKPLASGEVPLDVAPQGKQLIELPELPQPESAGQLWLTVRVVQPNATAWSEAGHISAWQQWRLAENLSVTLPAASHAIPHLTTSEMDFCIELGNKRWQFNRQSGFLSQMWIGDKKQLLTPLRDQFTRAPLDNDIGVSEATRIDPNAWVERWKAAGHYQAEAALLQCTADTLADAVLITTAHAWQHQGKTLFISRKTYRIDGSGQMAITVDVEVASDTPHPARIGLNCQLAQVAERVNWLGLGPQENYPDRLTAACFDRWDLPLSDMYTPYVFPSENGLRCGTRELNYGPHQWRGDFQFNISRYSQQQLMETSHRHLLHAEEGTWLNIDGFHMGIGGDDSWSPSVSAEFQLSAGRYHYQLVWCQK
Chain of Induced myeloid leukemia cell differentiation protein Mcl-1 (Q07820 whole entry): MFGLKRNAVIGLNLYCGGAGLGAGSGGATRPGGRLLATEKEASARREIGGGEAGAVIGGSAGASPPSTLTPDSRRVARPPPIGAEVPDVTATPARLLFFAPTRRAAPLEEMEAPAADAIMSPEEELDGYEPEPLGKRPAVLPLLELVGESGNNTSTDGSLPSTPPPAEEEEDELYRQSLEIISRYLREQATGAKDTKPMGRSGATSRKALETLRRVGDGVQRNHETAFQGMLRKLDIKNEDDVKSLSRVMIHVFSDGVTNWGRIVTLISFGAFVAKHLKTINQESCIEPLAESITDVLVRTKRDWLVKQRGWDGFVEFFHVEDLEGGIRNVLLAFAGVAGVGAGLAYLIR

In the case of `O=C(Nc1ccccc1F)C(=Cc1sc(N2CCOCC2)nc1-c1ccccc1)C(=O)Nc1ccccc1F`, the EC50 [1] is reported as 11.9 µM (active), the AC50 [2] is reported as 292 µM (active) and the EC50 [3] is reported as > 260 µM (inactive). The EC50 [4] was 9.63 µM (active) and the AC50 [5] was 16.4 µM (active).
In the case of `Fc1cccc2sc(Nc3nnc(-c4ccco4)o3)nc12`, the IC50 [6] is reported as > 66.6 µM (inactive), the EC50 [7] is reported as > 150 µM (not active) and the EC50 [8] is reported as 79.4 µM (active). For the same compound, the EC50 [9] was 2.43 µM (active), the EC50 [10] was 0.632 µM (active) and the EC50 [11] was 11.2 µM (active).
For `O=C(NCCO)Nc1ccc2nc(-c3ccco3)c(-c3ccco3)nc2c1`, the IC50 [12] was 0.579 µM (active), the IC50 [13] was 48.5 µM (active) and the IC50 [14] was 50 µM (inactive). For the same compound, the IC50 [15] was 0.476 µM (active).
With `COCCn1c(SCC(N)=O)nnc1-c1c[nH]c2ccccc12` the IC50 [16] was > 50 µM (inactive).
